The text below walks through data of paper PMC9739180, “Discovery of a Flavonoid FM04 as a Potent Inhibitor to Reverse P-Glycoprotein-Mediated Drug Resistance in Xenografts and Improve Oral Bioavailability of Paclitaxel” (International Journal of Molecular Sciences, 2022).

Structures are written as SMILES.

Data set [1] addresses T1, P-gp (Homo sapiens, UniProt P08183). Briefly: Intracellular DOX accumulation assay in LCC6MDR cells.
Data set [2] in a line: In vivo monitoring of FD18 and its metabolites in plasma after I.V. FD18. Conditions: after FD18 5 mg/kg I.V. Details: species or system SD rats. The protocol: Figure 3 Proposed metabolism pathway of FD18 and its metabolites formed in vivo. (A) metabolism study of FD18 was conducted on human liver microsomes (HLM) and rat liver microsomes (RLM) in vitro. Chemical structure of the 3 metabolites was predicted by LC/QTOF-MS/MS and confirmed by the synthetic compounds (Figure 2E–J). The pathways for biotransformation of FD18 into FM04 was proposed. (B) plasma concentration profile of FD18 and the in vivo formation of metabolites M1, M2 and M3. After I.V. injection of FD18 (5 mg/kg) into […], plasma was collected at 10, 30, 60, 120, 240, 420 and 600 min, respectively. The concentration of FD18 at each time point was determined by UPLC-MS/MS. Its plasma concentration was further quantified with peak area ratio of FD18 against D7-18. […] In vivo formation of metabolites M1, M2 and M3 were monitored and quantified by UPLC-MS/MS with corresponding calibration curve of 14a, FM04 and FM327. Pharmacokinetic parameter AUC was calculated by the pharmacokinetic software-Summit® PK solutions 2.0 (Summit Research Service, Ashland, Wilmington, DE, USA).
FD18 stock solution was freshly prepared in 33% Cremophor EL, 33% ethanol and 33% saline at a concentration of 9.5 mg/mL. FD18 stock solution was then diluted with saline to form a 4 mg/mL working solution for animal injection. SD rats were intravenously (I.V.) administered with FD18 at 5 mg/kg (n = 3). Blood samples (approx. 300 μL) were taken via jugular vein at 10, 30, 60, 120, 240 and 420 min post-administration. Blood samples were centrifuged at 16,100× g for 10 min to obtain plasma. Plasma samples (50 µL) were spiked with 15 μL of internal standard (IS) (D7-NBn, 10 μg/mL). Two hundred microliter of methanol was added for protein precipitation. Samples were centrifuged at 16,100× g for 10 min prior to filtering by 0.22 μm syringe filter for UPLC-MSMS analysis.
The UPLC-MS/MS system consists of an Agilent 1260 infinity UPLC interfaced with a triple quadrupole mass spectrometer (Agilent 6460) equipped with an electrospray ionization source in positive mode. Zorbax Eclipse XDB-C8 (4.6 × 150 mm, 5 µM) was used for separation. The mobile phase for chromatographic separation consisted of methanol + 0.1% formic acid (solvent B) and Milli-Q water + 0.1% formic acid (solvent A) with gradient elution of 30% solvent B to 100% solvent B in 5 min. The elution condition was allowed for equilibrium from the 7th min onward. The analysis time for each injection was 13 min. The flow rate was 0.4 mL/min. The synthetic compound D7-NBn, the deuterated benzyl form of FD18, was used as the internal standard (IS) for the quantification of the three metabolites. Multiple reaction monitoring (MRM) was set to monitor the transitions of D7-NBn [M+H]^+, FD18 [M+H]^+, M1 [M+H]^+, M2 [M+H]^+ and M3 [M+H]^+ at 731.01 > 98.1 m/z, 724.01 > 91.1 m/z, 634.01 > 114 m/z, 416.01 > 91.1 m/z and 327.01 > 239 m/z, respectively. The coefficient of determination (R^2) for 14a, FM04 and FM327 were above 0.99. The dynamic range for the metabolites in the current setting is 78 ng/mL to 2.44 ng/mL.

Data set [3] has as its target T1, P-gp. Kind of data set: P-gp-ATPase activity (P-gp-Glo assay). Format: biochemical. The arrangement: purchased Promega. The protocol:
(§1) N = 2–3 independent experiments. […] After incubation, the cells were lysed and spun down. […] N = 2–6 independent experiments. […] A 1% DMSO was a solvent control. […] N = 2–3 independent experiments.
P-gp-ATPase activity was measured by a P-gp-Glo assay system (Promega) with a human P-gp membrane, as reported previously. […] The reaction was initiated by the addition of MgATP and incubated at 37 °C for 1 h. After adding the ATP detection reagent, the sample was incubated at room temperature for 20 min before measuring the remaining ATP signal of luminescence by a Clariostar microplate reader (BMG Labtech). Vanadate-inhibitable P-gp ATPase activity was determined by calculating the luminescence signal in the samples with or without sodium vanadate.

The target in data set [4] is T1, P-gp. Kind of data set: Intracellular FM04 level in LCC6MDR and LCC6 cells (P-gp transport substrate test). Format: cell-based. Details: expressed in transfected cells; host or cells: MDA435/LCC6MDR (human melanoma). Conditions: 1-10 µM, LCC6MDR vs LCC6. The protocol: as §1
P-gp is a transporter with broad substrate specificity. To explore whether FM04 can be pumped by P-gp and work as a competitive inhibitor to prevent the drug substrate from binding, the following experiment was performed. The intracellular level of FM04 was compared in P-gp overexpressing LCC6MDR cells and non-P-gp parental LCC6 cells after its treatment.

T1 sequence (P08183 whole entry): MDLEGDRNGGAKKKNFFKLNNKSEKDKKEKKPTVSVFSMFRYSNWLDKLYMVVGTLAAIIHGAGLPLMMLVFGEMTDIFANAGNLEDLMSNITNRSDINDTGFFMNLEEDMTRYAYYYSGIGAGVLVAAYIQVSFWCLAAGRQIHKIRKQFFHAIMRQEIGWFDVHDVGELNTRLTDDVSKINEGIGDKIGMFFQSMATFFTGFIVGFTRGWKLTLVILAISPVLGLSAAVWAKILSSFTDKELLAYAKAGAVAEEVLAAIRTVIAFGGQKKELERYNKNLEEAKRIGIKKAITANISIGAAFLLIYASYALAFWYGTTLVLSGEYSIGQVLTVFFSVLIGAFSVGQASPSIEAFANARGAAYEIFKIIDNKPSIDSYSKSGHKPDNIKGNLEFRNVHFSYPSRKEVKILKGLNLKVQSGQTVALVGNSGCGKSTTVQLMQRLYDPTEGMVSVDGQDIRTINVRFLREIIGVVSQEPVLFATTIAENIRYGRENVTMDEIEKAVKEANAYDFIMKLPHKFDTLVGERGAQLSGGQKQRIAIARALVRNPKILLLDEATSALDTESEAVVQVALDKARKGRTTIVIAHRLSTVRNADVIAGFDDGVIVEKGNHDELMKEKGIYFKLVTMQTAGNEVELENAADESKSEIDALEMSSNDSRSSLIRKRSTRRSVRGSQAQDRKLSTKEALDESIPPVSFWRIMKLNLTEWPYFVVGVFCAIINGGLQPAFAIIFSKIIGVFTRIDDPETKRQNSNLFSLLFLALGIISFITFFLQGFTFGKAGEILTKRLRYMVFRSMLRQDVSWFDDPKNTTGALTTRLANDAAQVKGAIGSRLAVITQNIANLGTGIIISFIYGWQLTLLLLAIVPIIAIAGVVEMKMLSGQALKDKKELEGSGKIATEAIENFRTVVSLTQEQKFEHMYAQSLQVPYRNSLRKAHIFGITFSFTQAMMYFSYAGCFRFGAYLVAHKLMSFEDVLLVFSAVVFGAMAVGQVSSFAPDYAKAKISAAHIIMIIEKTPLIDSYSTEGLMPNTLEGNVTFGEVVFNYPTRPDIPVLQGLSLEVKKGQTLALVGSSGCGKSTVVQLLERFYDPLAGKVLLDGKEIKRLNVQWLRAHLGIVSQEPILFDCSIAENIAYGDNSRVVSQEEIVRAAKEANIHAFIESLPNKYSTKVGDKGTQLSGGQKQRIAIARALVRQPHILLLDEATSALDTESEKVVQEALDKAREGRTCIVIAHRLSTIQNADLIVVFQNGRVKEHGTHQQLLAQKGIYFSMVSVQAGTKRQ

Regarding `O=c1cc(-c2ccc(OCCOCCNCc3ccccc3)cc2)oc2ccccc12` [FM04, 2-(4-(2-(2-(benzylamino)ethoxy)ethoxy)phenyl)-4H-chromen-4-one], the EC50 in data set [1] was determined as 64 nM. Also, in data set [2] (Sprague-Dawley, rat, iv), the AUC(0-t) was 44.5 ng·h/mL, the Cmax was 11 ng/mL and the Tmax was 1 h. Also, the “Normalized AUC (systemic exposure relative to FD18)” value in data set [2] (listed as M2) is 7%. Also, the “P-gp ATPase activity, fold of basal” value in data set [3] (3 μM) came out at 1.5 fold. Besides, in data set [3] (100 μM), the “P-gp ATPase activity, fold of basal” value amounted to 3.3 fold. In data set [4], the “Transport substrate of P-gp” value is “not a transport substrate of P-gp”.
